Where no end group is shown, it is not given here.
Legend:
[1] = test system: primary mouse aortic SMC; assay type: cell-based; conditions: for proliferation of primary mouse aortic SMC (MTT), TAT-fused peptides: 100 μM, MTT after 2 days
Protocol: (§1) Cell culture conditions The isolation and culture of primary mouse aortic VSMC have was performed according to methods previously described (Afroze T, Yang L L, Wang C, Gros R, Kalair W, Hogue A N, Mungrue I N, Zhu Z, Husain M. Calcineurin-independent regulation of plasma membrane Ca2+ ATPase-4 in the vascular smooth muscle cell cycle. Am J Physiol Cell Physiol. July 2003; 285(1):C88-95). VSMCs were grown in DMEM (GIBCO/BRL, Gaithersburg, Md.) supplemented with 10% FBS (Hyclone, Logan, Utah), 50 ng/mL platelet-derived growth factor (PDGF, Sigma) and 1% penicillin-streptomycin (GIBCO/BRL). For serum starvation, cells were grown to 60% to 70% confluence, washed twice with PBS, and cultured in starvation medium (0.25% FBS-supplemented DMEM) for 72 hours to achieve Go arrest. Progression to G1/S was brought about by stimulation with 10% FBS and 50 ng/mL PDGF for 24 hours. Cells and reagents for primary human aortic VSMC culture were purchased from Cascade Biologics. Human VSMC(C-007-5C) were grown in Medium 231 with Smooth Muscle Growth Supplement (SMGS) S-007-25 and 1% penicillin-streptomycin (GIBCO/BRL). Cyclin E1/E2 double knockout mouse embryonic fibroblasts (MEF) were kindly provided by Dr. P. Sicinski (Harvard Medical School), and maintained in DMEM with 10% FBS (Hyclone) and 1% penicillin-streptomycin (GIBCO/BRL). Go arrest of MEF was achieved by starvation for 48 h in medium lacking FBS. Mouse embryonic fibroblasts (MEF) were maintained for normal culture in 10% FBS-supplemented DMEM. For the starvation of MEF, cells were cultured in starvation medium without FBS for 48 hours to achieve Go arrest. HeLa (human cervical cancer cell), Saos-2 (human osteosarcoma cell) and A549 (human lung cancer cell) were cultured in 10% FBS-supplemented DMEM.
(§2) MTT colorimetric survival assay. Active mitochondria of living cells can cleave MTT to produce formazan, the amount of which is directly proportional to the number of living cells. Cell survival was assessed (Denizot, 1986). Cells in 96-well plate were washed two times with PBS followed by 4 hr of incubation at 37° C. with 1 mg/ml of MTT (in phenol red free DMEM supplemented with 2 mM of L-glutamine & 1 mM of sodium pyruvate) in a reaction volume of 100 μl. After removing MTT solution, DMSO was added to dissolve formazan crystals. Plate was shaken for 5 min at 55° C. for complete dissolve. Dye absorbance in viable cells was measured at 570 nm with 630 nm as a reference wavelength. All experiments were repeated at least 3 times, and each experimental condition was repeated in at least quadruplicate wells in each experiment.
Nucleofection. For peptides delivery via Nucleofector technology, 1×10^6 cells were harvested, resuspended in 100 μl of Nucleofector solution (for VSMC: Cat. No. VPI-1004; for MEF: Cat. No.: VPD-1005, both provided by Amaxa GmBH, Köln, Germany) and mixed with 100 nmole (in 10 μl) of each peptide. The cell solution was transferred into a kit-provided cuvette and positioned into a Nucleofector device. Subsequently, the transfection was performed with a single pulse using the preprogrammed nucleofection program (A-33 for VSMC; T-20 for MEF) according to the manufacturer's recommendation. Following nucleofection, the cells were transferred into 96-well plate (2K or 5K cells per well for MTT assay) or T25 culture flasks (for FACS analysis) containing pre-warmed stem cell medium using kit-provided plastic pipettes to prevent cell damage and the cells were cultured at 37° C. in 5% CO2.

[2] = test system: HeLa (human cervical cancer cell); assay: MTT proliferation assay, HeLa; assay type: cell-based; conditions: 100 μM, MTT after 2 days
Protocol: as §1, §2

[3] = test system: Saos-2 (human osteosarcoma); assay: MTT proliferation assay, Saos-2; assay type: cell-based; conditions: 100 μM, MTT after 2 days
Protocol: as §1, §2

[4] = test system: A549 (human lung cancer cell); assay: MTT proliferation assay, A549; assay type: cell-based; conditions: 100 μM, MTT after 2 days
Protocol: as §1, §2

[5] = test system: primary human aortic VSMC; assay: 3H-thymidine incorporation assay, human aortic VSMC; assay type: cell-based; conditions: 10 and 100 μM for 1.0 h, 72 h after treatment
Protocol: Cell culture conditions The isolation and culture of primary mouse aortic VSMC have was performed according to methods previously described (Afroze T, Yang L L, Wang C, Gros R, Kalair W, Hogue A N, Mungrue I N, Zhu Z, Husain M. Calcineurin-independent regulation of plasma membrane Ca2+ ATPase-4 in the vascular smooth muscle cell cycle. Am J Physiol Cell Physiol. July 2003; 285(1):C88-95). VSMCs were grown in DMEM (GIBCO/BRL, Gaithersburg, Md.) supplemented with 10% FBS (Hyclone, Logan, Utah), 50 ng/mL platelet-derived growth factor (PDGF, Sigma) and 1% penicillin-streptomycin (GIBCO/BRL). For serum starvation, cells were grown to 60% to 70% confluence, washed twice with PBS, and cultured in starvation medium (0.25% FBS-supplemented DMEM) for 72 hours to achieve Go arrest. Progression to G1/S was brought about by stimulation with 10% FBS and 50 ng/mL PDGF for 24 hours. Cells and reagents for primary human aortic VSMC culture were purchased from Cascade Biologics. […]
^3H-thymidine incorporation proliferation assay. […] Cells were grown at 37° C. and analyzed at 24, 48 and 72 h after ^3H-thymidine exposure. […] Solubilized contents of wells were removed and added to 2.5 ml of scintillation fluid (ReadySafe™ Cocktail, Beckman Coulter, Product No. 141349). Radioactivity was measured in a scintillation counter (Beckman Coulter, LS 6500).

[6] = test system: mouse carotid artery injury model; assay: Mouse carotid artery injury model (wire denudation); assay type: in vivo; conditions: truncated peptides, arteries harvested 14 days following injury
Protocol: Injury of mouse carotid arteries (wire denudation) and local administration of CBS peptide. The mice (8-12 weeks, 20-25 g) were anesthetized with i.p. Ketamine (100 mg/kg, MTC Pharmaceuticals, Cambridge, ON, Canada) and Xylazine (10 mg/kg, Bayer Inc., Etobicoke, ON, Canada). Surgical procedures were performed under a dissecting microscope (MZ6 Leica, Heerbrugg, Switzerland). The left carotid artery was exposed via a midline incision on the ventral side of the neck. The bifurcation of the carotid artery was located and two ligatures were placed around the external carotid artery. This vessel was then tied off with the distal ligature. […] An incision hole is made between the two ligatures of external carotid artery, through which the denudation device is introduced. This device consists of a curved flexible copper wire (0.3 mm diameter) which is passed down to the common carotid artery, and under rotation, passed along this segment four times. The wire was then removed, and the external carotid artery was tied off proximal to the incision hole with the proximal ligature. […]
Tissue processing and analysis. […] Images were analyzed by planimetry using Image J software. […] Medial mass was calculated subtracting the luminal from whole area. […]

[7] = biological target: T1, cyclin E/CDK2 (Mus musculus, UniProt P0DP26); assay: Histone H1 in vitro kinase assay; assay type: biochemical; conditions: G1/S-synchronized mouse VSMC, each peptide 100 μM
T1 construct: endogenous in cells; host or cells: primary mouse aortic VSMC (G1/S-synchronized), immunoprecipitated complexes
Protocol: Immunoprecipitation and kinase assays. 5×10^6 SMC were harvested and re-suspended with 2 ml of lysis buffer (50 mM Tris (pH 7.4), 250 mM NaCl, 5 mM EDTA, 0.1% NP-40, 0.5 mM DTT, 0.1 mM Na3VO4, 5 μg/ml leupeptin, 5 μg/ml aprotinin, 2 mM PMSF, and 10% glycerol). After homogenization, cell lysates were clarified by centrifugation at 12×10^3 rpm, 4° C. for 30 min, and the supernatant was collected. An aliquot was taken for protein concentration determination using the BCA protein assay kit (Sigma). Cell extracts (200 μg) were then incubated for 2 hr at 4° C. with saturating concentrations of polyclonal antibodies (Abs). […]
For the in vitro kinase assays, 20 μl of kinase reaction mixture (20 mM Tris (pH 7.4), 5 mM MgCl2, 2.5 mM MnCl2, 1 mM DTT, 10 μg of C-terminal of human Rb protein (Upstate Biotech.) or 4 μg of histone-H1 (Upstate Biotech.) as substrates, 13 μM ATP, and 2.4 μCi [γ-^32P]ATP (Amersham Pharmacia)) was added to CDK2-, cyclin E-, or cyclin A-immunoprecipitated (IPd) complexes after removing the washing buffer from GammaBind™ G Sepharose resin. Based on the total calcium content of kinase reaction mixtures (as determined by inductively coupled plasma atomic emission spectrometry), amounts of EGTA required to yield final concentrations of free Ca^2+ ion (0, 100 or 500 nM) were calculated by WinMaxC (http://www.stanford.edu/˜cpatton/winmaxc2.html). […]

[8] = test system: primary mouse aortic SMC; assay: Lactate dehydrogenase (LDH) cytotoxicity assay; assay type: cell-based; conditions: nucleofection, 1 mM, asynchronized cells
Protocol: Lactate dehydrogenase (LDH) assay. To measure the level of cytotoxicity, LDH based in vitro toxicology assay kit (Sigma, Cat. No.: TOX-7) was used (Legrand, 1992). After nucleofection of peptides, 10^6 cells were grown on 24-well plate in the presence of phenol red free DMEM. 3 days later, 500 μl of cell culture media was collected from each well for assay followed by centrifugation (12,000 rpm, 30 min, at 4° C.) to remove any cell debris completely. Subsequent procedures for enzymatic assay were performed according to manufacture's protocol.
Nucleofection. For peptides delivery via Nucleofector technology, 1×10^6 cells were harvested, resuspended in 100 μl of Nucleofector solution (for VSMC: Cat. No. VPI-1004; for MEF: Cat. No.: VPD-1005, both provided by Amaxa GmBH, Köln, Germany) and mixed with 100 nmole (in 10 μl) of each peptide. The cell solution was transferred into a kit-provided cuvette and positioned into a Nucleofector device. Subsequently, the transfection was performed with a single pulse using the preprogrammed nucleofection program (A-33 for VSMC; T-20 for MEF) according to the manufacturer's recommendation. […]

| Sequence | proliferation of primary mouse aortic SMC (MTT), TAT-fused peptides [1] | proliferation of HeLa cells (MTT) [2] | proliferation of Saos-2 cells (MTT) [3] | proliferation of A549 cells (MTT) [4] | other results |
| --- | --- | --- | --- | --- | --- |
| RRRQRRKKRG [TAT domain, reference compound] | no anti-proliferative effect | no anti-proliferative effect | no anti-proliferative effect | no anti-proliferative effect | – |
| RRRQRRKKRGVDIDQARLKMLGQTRPHDDDDC [TAT-NC, reference compound] | – | – | – | – | 3H-thymidine incorporation (S-phase entry), human aortic VSMC [5]: not |
| FAFGRQVNKARSEKALGVSDRT [scrambled, reference compound] | – | – | – | – | proliferation of primary mouse aortic SMC (MTT) ([1]; peptide delivered via nucleofection): no effect |
| RRRQRRKKRGVTVFL (N-terminal TAT cell-penetrating peptide; listed as Homo sapiens) [TAT-SEQ ID NO:2(#16-20)] | – | – | – | – | anti-proliferative effect on the site of injury (media mass, I/M ratio) [6]: anti-proliferative effect |
| GGAEFSARSRKRKANVTVFLQD [CBS] | – | – | – | – | inhibition of in vitro cyclin E/CDK2 activity [7]: 40%; maximum level of inhibition of VSMC proliferation [1]: 50%; cell death (LDH assay) [8]: did not cause any increase in cell death |
| RRRQRRKKRGEFSARSRKRKANVTVF (N-terminal TAT peptide; listed as Homo sapiens) [TAT-SEQ ID NO:2 (#4-19)] | started to lose its proliferative function | started to lose its proliferative function | started to lose its proliferative function | started to lose its proliferative function | – |
| RRRQRRKKRGAEFSARSRKRKANVTVFL (N-terminal TAT peptide; listed as Homo sapiens) [TAT-SEQ ID NO:2 (#3-20)] | most powerfully and efficiently | most powerfully and efficiently | most powerfully and efficiently | most powerfully and efficiently | anti-proliferative effect on the site of injury (media mass, I/M ratio) [6]: anti-proliferative effect |

— US20110105382A1, “CALMODULIN-BINDING PEPTIDES THAT REDUCE CELL PROLIFERATION IN CANCER AND SMOOTH MUSCLE PROLIFERATION DISEASES” (priority 2007, published 2011)
